The supplement of paper PMC10307832

How the values were obtained:
Assay in all cases: relative viability (nuclei count vs DMSO), 5 days (fraction); higher = more cells survive
Doxorubicin + Dasatinib = compound: COc1cccc2c1C(=O)c1c(O)c3c(c(O)c1C2=O)C[C@@](O)(C(=O)CO)C[C@@H]3O[C@H]1C[C@H](N)[C@H](O)[C@H](C)O1 [Doxorubicin] + Cc1nc(Nc2ncc(C(=O)Nc3c(C)cccc3Cl)s2)cc(N2CCN(CCO)CC2)n1 [Dasatinib] (partner 0.075 µM)
In short: (§1)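 Relative viability equals treated-well nuclei counts divided by vehicle-well nuclei counts. Counts came from 4× images of lung cancer cell lines grown in 1536-well plates for 5 days after pin-tool dosing on the day after seeding. Dosing used one drug alone or a fixed anchor-drug dose plus five library-drug doses (not always all listed) in √10 steps, and values are medians of duplicate plates.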

Doxorubicin + Luminespib = compound: COc1cccc2c1C(=O)c1c(O)c3c(c(O)c1C2=O)C[C@@](O)(C(=O)CO)C[C@@H]3O[C@H]1C[C@H](N)[C@H](O)[C@H](C)O1 [Doxorubicin] + CCNC(=O)c1noc(-c2cc(C(C)C)c(O)cc2O)c1-c1ccc(CN2CCOCC2)cc1 [Luminespib] (partner 0.01 µM)
In short: as §1

BAY61-3606 + Bortezomib = compound: COC1=C(C=C(C=C1)C2=CC3=NC=CN3C(=N2)NC4=C(C=CC=N4)C(=O)N)OC [BAY61-3606] + CC(C)C[C@H](NC(=O)[C@H](Cc1ccccc1)NC(=O)c1cnccn1)B(O)O [Bortezomib] (partner 0.002 µM)
In short: as §1

BAY61-3606 + Decitabine = compound: COC1=C(C=C(C=C1)C2=CC3=NC=CN3C(=N2)NC4=C(C=CC=N4)C(=O)N)OC [BAY61-3606] + Nc1ncn([C@H]2C[C@H](O)[C@@H](CO)O2)c(=O)n1 [Decitabine] (partner 2 µM)
In short: as §1

Cell Line	relative viability (Doxorubicin + Dasatinib; first compound 0.001 µM)	relative viability (Doxorubicin + Dasatinib; first compound 0.003162 µM)	relative viability (Doxorubicin + Dasatinib; first compound 0.01 µM)	relative viability (Doxorubicin + Dasatinib; first compound 0.03162 µM)	relative viability (Doxorubicin + Dasatinib; first compound 0.1 µM)	relative viability (Doxorubicin + Luminespib; first compound 0.001 µM)	relative viability (Doxorubicin + Luminespib; first compound 0.003162 µM)	relative viability (Doxorubicin + Luminespib; first compound 0.01 µM)	relative viability (Doxorubicin + Luminespib; first compound 0.03162 µM)	relative viability (Doxorubicin + Luminespib; first compound 0.1 µM)	relative viability (BAY61-3606 + Bortezomib; first compound 0.02 µM)	relative viability (BAY61-3606 + Bortezomib; first compound 0.06325 µM)	relative viability (BAY61-3606 + Bortezomib; first compound 0.2 µM)	relative viability (BAY61-3606 + Bortezomib; first compound 0.6325 µM)	relative viability (BAY61-3606 + Bortezomib; first compound 2 µM)	relative viability (BAY61-3606 + Decitabine; first compound 0.02 µM)	relative viability (BAY61-3606 + Decitabine; first compound 0.06325 µM)	relative viability (BAY61-3606 + Decitabine; first compound 0.2 µM)	relative viability (BAY61-3606 + Decitabine; first compound 0.6325 µM)	relative viability (BAY61-3606 + Decitabine; first compound 2 µM)
NCI-H3122	0.684	0.837	0.735	0.291	0.928	0.0793	0.117	0.102	0.0975	0.0943	0.947	1.02	1.05	0.988	1	0.463	0.559	0.494	0.347	0.511
PC-3 [JPC-3]	1.02	0.975	0.935	0.946	0.97	0.661	0.748	0.683	0.714	0.615	0.833	0.841	0.826	0.834	0.793	0.822	0.711	0.848	0.947	0.781
PC-14	0.28	0.184	0.22	0.0983	0.0282	0.173	0.181	0.122	0.14	0.116	0.829	0.883	0.801	0.949	0.728	–	0.244	0.246	0.203	0.226
RERF-LC-KJ	0.85	0.83	0.706	0.318	0.278	1.32	1.21	0.838	0.323	0.308	1.2	1.13	1.06	1.17	0.85	0.766	0.717	0.654	0.659	0.556
SK-LU-1	0.158	0.193	0.166	0.124	0.116	0.204	0.215	0.249	0.203	0.165	1.38	1.15	1.12	1.21	0.961	0.715	0.725	0.575	0.621	0.428
SW 1573	0.544	0.452	0.174	0.106	0.0634	0.22	0.206	0.178	0.0908	0.0847	1.16	1.18	0.971	1.02	0.66	0.526	0.553	0.467	0.511	0.325
